Experimental data as given in patent US9260504B2, “N- and C-terminal substituted antagonistic analogs of GH-RH” (University of Miami, priority 2008, dated 2016).
Marks after values point to notes of the source that are not given here.

How the values were obtained:
Type in all cases: in vivo
[1] = test system: NCI-N87 human gastric cancer; experiment: NCI-N87 human gastric cancer xenografts in nude mice; conditions: 10 μg/day s.c.
Experimental: NCI-N87 cancers were transplanted s.c. into both flank areas of 30 female nude mice. The mice were randomly assigned into 4 experimental groups with 6 to 9 animals in each group and received single daily injections for 77 days as follows: 1. Control (vehicle solution); 2. JMR-132 (10 μg/day s.c.); 3. Peptide 1109 (10 μg/day s.c.); 4. Peptide 11479 (10 μg/day s.c.). Tumor volumes were measured once a week. The experiment was ended on day 77 by sacrificing the mice under Isoflurane anesthesia. Resulting tumors were cleaned, weighed, and snap-frozen until further analyses. Statistical analyses of the measurement results were done by two-tailed t-test, p<0.05 being considered significant. Data are presented as the means±S.E.

[2] = test system: Panc-1 human pancreatic cancer; experiment: Panc-1 human pancreatic cancer xenografts in nude mice; conditions: 10 μg/day s.c. for 36 days
Experimental: Panc-1 cancers were transplanted s.c. into both flank areas of 60 female nude mice, and allowed to grow for 105 days before starting the treatment with GH-RH antagonists. The mice were randomly assigned into 3 experimental groups with 8 animals in each group and received single daily injections for 36 days as follows: 1. Control (vehicle solution); 2. JMR-132 (10 μg/day s.c.); 3. Peptide 11457 (10 μg/day s.c.). Tumor volumes were measured once a week. The experiment was ended on day 82 by sacrificing the mice under Isoflurane anesthesia. Resulting tumors were cleaned, weighed, and snap-frozen until further analyses. Statistical analyses of the measurement results were done by two-tailed t-test, p<0.05 being considered significant. Data are presented as the means±S.E.

[3] = test system: H-460 human non-small cell lung cancer; experiment: H-460 human non-SCLC xenografts in nude mice, Experiment 1; conditions: 10 μg/day s.c., 28 days; means±S.E.
Experimental: Male nude mice were implanted s.c. with 3 mm^3 pieces of H-460 human non-SCLC tumor tissue on both flanks. When tumors had grown to a mean volume of approximately 90 mm^3, the mice were randomly assigned into 4 experimental groups with 10 animals in each group and received single daily injections for 28 days as follows: 1. Control (vehicle solution); 2. JMR-132 (10 μg/day s.c.); 3. Peptide 1109 (10 μg/day s.c.); 4. Peptide 11111 (10 μg/day s.c.). Tumor volumes were measured once a week. The experiment was ended on day 28 by sacrificing the mice under Isoflurane anesthesia. Resulting tumors were cleaned, weighed, and snap-frozen until further analyses. Statistical analyses of the measurement results were done by two-tailed t-test, p<0.05 being considered significant. Data are presented as the means±S.E.

[4] = test system: H-460 human non-small cell lung cancer; experiment: H-460 human non-SCLC xenografts in nude mice, Experiment 3; conditions: 10 μg/day s.c., 28 days
Experimental: Male nude mice were implanted s.c. with 3 mm^3 pieces of H-460 human non-SCLC tumor tissue on both flanks. When tumors had grown to a mean volume of approximately 90 mm^3, the mice were randomly assigned into 8 experimental groups with 8 to 10 animals in each group and received single daily injections for 28 days as follows: 1. Control (vehicle solution); 2. JMR-132 (10 μg/day s.c.); 3. Peptide 11123 (5 μg/day s.c.); 4. Peptide 11125 (5 μg/day s.c.); 5. Peptide 11307 (5 μg/day s.c.); 6. Peptide 11317 (5 μg/day s.c.); 7. Peptide 11473 (5 μg/day s.c.); 8. Peptide 11485 (5 μg/day s.c.). Tumor volumes were measured once a week. The experiment was ended on day 28 by sacrificing the mice under Isoflurane anesthesia. Resulting tumors were cleaned, weighed, and snap-frozen until further analyses. Statistical analyses of the measurement results were done by two-tailed t-test, p<0.05 being considered significant.

Substance: [PhAc^0-Tyr^1, D-Arg^2, Cpa^6, Ala^8, Har^9, Tyr(Me)^10, His^11, Abu^15, His^20, Nle^27, D-Arg^28, Har^29]hGH-RH(1-29)NH2 [JMR-132, reference compound]
- Effect on the growth of NCI-N87 cancers ([1]; 77 days): not effective
- Number of regressing tumors ([1]; 77 days): 2
- Tumor growth after 77 days (%) ([1]; 77 days, means±S.E.): 409 ± 78%
- Tumor weights ([1]; day 77, means±S.E.): 407 ± 175 mg
- Tumor doubling time ([1]; calculated without the regressing tumors): 40.8 ± 5.9 days
- Tumor weights ([2]; end of experiment day 82): 185 ± 105 mg
- Tumor growth from day 1 to day 82 (%) ([2]; means±S.E.): 1730 ± 350%
- Tumor volume on day 82 (mm^3) ([2]; means±S.E.): 511 ± 221* mm^3
- Effect on the growth of Panc-1 human pancreatic cancers ([2]; observed for at least 82 days): less effective
- Tumor growth after 4 weeks (%) [3]: 2404 ± 604%
- Tumor growth inhibition after 4 weeks (%) [4]: 15.37%
